Assay results published in patent US8946198B2, “Estrogen replacement regimen” (priority 2002, dated 2015).

Columns and labels:
[1] = tested on: non-pregnant, oophorectomized ewes; test: Uterine blood flow, MAP and heart rate during bolus vs continuous estradiol, first phase; type: in vivo, sheep
Experimental: In the study, fifteen non-pregnant, oophorectomized ewes were implanted with doppler flow probes (Transonic System, Ithaca, N.Y.) on the uterine artery and indwelling catheters were placed in the femoral artery and vein for mean arterial pressure (MAP) measurements and estrogen administration respectively. All animals were oophorectomized. MAP, heart rate (HR) and uterine blood flow (UBF) were recorded for 30 minutes daily for 14 days after at least 60 minutes of adaptation in the recording room. A baseline for each parameter of each sheep was established by averaging values obtained from day 8 through 14 after the last surgery. On day 14, sheep were divided randomly into three groups consisting of 5 animals each. […] The third group (Control) served as a vehicle control. Treatment groups received estrogen from day 15 through 28 and parameters were recorded daily throughout this period. […] It seems that none of the outcome parameters achieved a steady state during the study period.

[2] = tested on: non-pregnant, oophorectomized ewes; test: Restoration of the uterine blood flow response after continuous infusion, second phase; type: in vivo, sheep; conditions: after continuous infusion 220 μg day 15-28
Experimental: In the second phase of the study an ultra-low dose of estrogen (0.01 μg/Kg) was administered to try to restore the response, which was most diminished in the first phase of the study by continuous infusion. The second phase of the study involved continuous infusion of 220 μg of estradiol from day 15 to 28 in another 15 sheep followed by randomization into 3 groups (See FIG. 1). […] UBF was measured throughout the study.

[3] = tested on: estrogen receptor (ER); conditions: ovariectomized non-pregnant sheep, myometrium and endometrium; cited from earlier work
[4] = target: T1, progesterone receptors (Homo sapiens, UniProt P06401); conditions: cited from earlier work
T1 sequence (P06401 1-933): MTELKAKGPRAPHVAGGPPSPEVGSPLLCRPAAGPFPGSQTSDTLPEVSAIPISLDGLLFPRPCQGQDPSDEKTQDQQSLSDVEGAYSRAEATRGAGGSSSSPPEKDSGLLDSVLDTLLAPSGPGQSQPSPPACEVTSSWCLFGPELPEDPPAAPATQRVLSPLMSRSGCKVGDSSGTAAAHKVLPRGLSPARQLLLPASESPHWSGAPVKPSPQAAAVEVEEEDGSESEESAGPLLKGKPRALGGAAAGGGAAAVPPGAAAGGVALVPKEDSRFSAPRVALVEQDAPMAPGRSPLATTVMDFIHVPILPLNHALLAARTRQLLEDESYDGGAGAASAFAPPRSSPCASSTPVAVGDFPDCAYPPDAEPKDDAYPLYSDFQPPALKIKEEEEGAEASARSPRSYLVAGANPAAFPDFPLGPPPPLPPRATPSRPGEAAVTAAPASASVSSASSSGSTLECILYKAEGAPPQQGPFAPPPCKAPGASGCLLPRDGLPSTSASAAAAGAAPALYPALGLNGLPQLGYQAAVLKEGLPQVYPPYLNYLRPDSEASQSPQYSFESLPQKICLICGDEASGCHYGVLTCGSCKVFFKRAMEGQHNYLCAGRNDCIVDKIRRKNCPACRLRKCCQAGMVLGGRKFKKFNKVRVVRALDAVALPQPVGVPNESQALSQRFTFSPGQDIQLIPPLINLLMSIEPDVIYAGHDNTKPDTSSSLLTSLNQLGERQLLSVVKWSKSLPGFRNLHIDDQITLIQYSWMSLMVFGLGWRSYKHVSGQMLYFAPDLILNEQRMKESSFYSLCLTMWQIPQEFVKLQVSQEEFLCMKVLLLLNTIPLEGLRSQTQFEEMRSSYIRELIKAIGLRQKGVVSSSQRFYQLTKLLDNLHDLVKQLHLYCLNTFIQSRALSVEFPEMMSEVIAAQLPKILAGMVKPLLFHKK

[5] = target: T2, human sex-hormone-binding globulin (SHBG) (Homo sapiens, UniProt P04278); conditions: cited from earlier work
T2 sequence (P04278 30-402): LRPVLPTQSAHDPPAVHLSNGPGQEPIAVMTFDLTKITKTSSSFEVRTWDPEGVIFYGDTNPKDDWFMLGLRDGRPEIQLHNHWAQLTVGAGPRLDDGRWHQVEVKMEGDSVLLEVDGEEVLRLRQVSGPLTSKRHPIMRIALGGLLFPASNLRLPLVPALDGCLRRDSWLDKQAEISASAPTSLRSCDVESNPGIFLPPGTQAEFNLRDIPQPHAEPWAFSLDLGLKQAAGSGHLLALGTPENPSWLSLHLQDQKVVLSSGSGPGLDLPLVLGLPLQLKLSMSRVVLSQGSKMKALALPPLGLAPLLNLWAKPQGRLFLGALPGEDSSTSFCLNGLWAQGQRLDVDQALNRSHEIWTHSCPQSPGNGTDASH

[6] = continuous iv infusion 220 μg daily

Compound	HR on the first day [1, 6]	HR on the second day [1, 6]	MAP decrease in the first two days [1, 6]	increase in UBF at two days of treatment [1, 6]	UBF for the next 12 days of the study ([1]; continuous iv infusion 220 μg daily, after day 2 of treatment)	MAP during the rest of the study ([1]; continuous iv infusion 220 μg daily, after the first two days)	UBF after 24 hours (before the next bolus) ([1]; daily single iv bolus 10 μg/kg)	daily intermittent increase in HR ([1]; daily single iv bolus 10 μg/kg)	effect on MAP (mean arterial pressure) ([1]; daily single iv bolus 10 μg/kg)	HR decrease to levels below the baseline after 24 hours ([1]; daily single iv bolus 10 μg/kg, 24 hours after bolus)	increase in UBF (uterine blood flow), start of gradual increase ([1]; daily single iv bolus 10 μg/kg, start of the gradual increase in the first 4 days, vs baseline)	UBF response to standard bolus doses after 2 days of ultra-low boluses ([2]; 0.01 μg/Kg bolus 2 days, then standard daily bolus (printed 1 μg/Kg) for 3 days (FIG. 4))	UBF response to standard bolus doses after 2 days of standard boluses ([2]; 10 μg/Kg bolus 2 days, then 10 μg/Kg for 3 more days (FIG. 3))	UBF response to standard bolus doses after 2 days of saline boluses ([2]; saline 2 days, then 10 μg/Kg bolus daily for 3 days (FIG. 2))	effect on ER expression at physiologic concentrations [3]	effect on ER expression at supra-physiologic doses [3]	binding to progesterone receptors [4]	affinity for SHBG [5]
C[C@]12CC[C@@H]3c4ccc(O)cc4CC[C@H]3[C@@H]1CC[C@@H]2O [17β-estradiol]	increased significantly	dropped to baseline levels	8.6±4%	1854.2±527.9%	returned almost to baseline levels	gradually increased to baseline levels	returned almost to baseline levels	15-20%	did not affect MAP	8-10%	489±206.5%	complete response	no response at all	partial response	promoted ER expression	inhibited ER expression	–	–
C#C[C@]1(O)CC[C@H]2[C@@H]3CCC4=CCCC[C@@H]4[C@H]3C(=C)C[C@@]21CC [desogestrel, 13-ethyl-11-methylene-18,19-dinor-17 alpha-pregn-4-en-20-yn-17-ol]	–	–	–	–	–	–	–	–	–	–	–	–	–	–	–	–	bind to progesterone receptors	lack of affinity
C#C[C@]1(OC(C)=O)CC[C@H]2[C@@H]3CCC4=CC(=NO)CC[C@@H]4[C@H]3CC[C@@]21CC (mixture of isomers) [norgestimate]	–	–	–	–	–	–	–	–	–	–	–	–	–	–	–	–	bind to progesterone receptors	lack of affinity
